Experimental data: the supplement of paper PMC10307832

Tests used:
Assay in all cases: relative viability (nuclei count vs DMSO), 5 days (fraction); higher = more cells survive
CX-5461 + Olaparib = compound: Cc1cnc(CNC(=O)c2c(=O)c3ccc(N4CCCN(C)CC4)nc3n3c2sc2ccccc23)cn1 [CX-5461] + O=C(c1cc(Cc2n[nH]c(=O)c3ccccc23)ccc1F)N1CCN(C(=O)C2CC2)CC1 [Olaparib] (partner 8 µM)
In short: (§1)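 After 5 days of treatment, lung cancer cells in 1536-well plates were fixed and stained in a single step (final 0.05% Triton X-100, 1% formaldehyde, 1 ug/ml Hoechst) and their nuclei counted on 4× images. Treatment had been applied by pin tool the day after seeding as one drug alone or as a fixed anchor-drug dose with five library-drug doses (not always all listed) in √10 steps. Relative viability is the nuclei count of treated wells divided by that of vehicle wells, and values are medians of duplicate plates.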

CX-5461 + Alpelisib = compound: Cc1cnc(CNC(=O)c2c(=O)c3ccc(N4CCCN(C)CC4)nc3n3c2sc2ccccc23)cn1 [CX-5461] + Cc1nc(NC(=O)N2CCC[C@H]2C(N)=O)sc1-c1ccnc(C(C)(C)C(F)(F)F)c1 [Alpelisib] (partner 2 µM)
In short: as §1

IMD-0354 + Bortezomib = compound: O=C(Nc1cc(C(F)(F)F)cc(C(F)(F)F)c1)c1cc(Cl)ccc1O [IMD-0354] + CC(C)C[C@H](NC(=O)[C@H](Cc1ccccc1)NC(=O)c1cnccn1)B(O)O [Bortezomib] (partner 0.002 µM)
In short: as §1

IMD-0354 + Linsitinib = compound: O=C(Nc1cc(C(F)(F)F)cc(C(F)(F)F)c1)c1cc(Cl)ccc1O [IMD-0354] + C[C@]1(O)C[C@@H](c2nc(-c3ccc4ccc(-c5ccccc5)nc4c3)c3c(N)nccn32)C1 [Linsitinib] (partner 1 µM)
In short: as §1

Cell Line	relative viability (CX-5461 + Olaparib; first compound 0.01 µM)	relative viability (CX-5461 + Olaparib; first compound 0.03162 µM)	relative viability (CX-5461 + Olaparib; first compound 0.1 µM)	relative viability (CX-5461 + Olaparib; first compound 0.3162 µM)	relative viability (CX-5461 + Olaparib; first compound 1 µM)	relative viability (CX-5461 + Alpelisib; first compound 0.01 µM)	relative viability (CX-5461 + Alpelisib; first compound 0.03162 µM)	relative viability (CX-5461 + Alpelisib; first compound 0.3162 µM)	relative viability (CX-5461 + Alpelisib; first compound 1 µM)	relative viability (IMD-0354 + Bortezomib; first compound 0.04 µM)	relative viability (IMD-0354 + Bortezomib; first compound 0.1265 µM)	relative viability (IMD-0354 + Bortezomib; first compound 0.4 µM)	relative viability (IMD-0354 + Bortezomib; first compound 1.265 µM)	relative viability (IMD-0354 + Bortezomib; first compound 4 µM)	relative viability (IMD-0354 + Linsitinib; first compound 0.04 µM)	relative viability (IMD-0354 + Linsitinib; first compound 0.1265 µM)	relative viability (IMD-0354 + Linsitinib; first compound 0.4 µM)	relative viability (IMD-0354 + Linsitinib; first compound 1.265 µM)	relative viability (IMD-0354 + Linsitinib; first compound 4 µM)	relative viability (CX-5461 + Alpelisib; first compound 0.1 µM)
NCI-H1437	0.654	0.643	0.528	0.648	0.567	0.979	0.941	0.913	0.801	0.486	0.383	0.332	0.0977	0.196	1.2	1.01	0.515	0.114	0.249	–
COR-L23	0.36	0.338	0.299	0.3	0.185	0.81	0.921	0.725	0.342	0.932	0.823	0.372	0.114	0.249	0.764	0.73	0.388	0.116	0.158	0.649
ABC-1	0.798	–	1.04	0.594	0.517	1.12	0.916	1.09	0.751	0.35	0.332	0.343	0.213	0.218	0.858	0.826	0.57	0.335	0.28	–
SW 900	0.785	0.872	–	0.923	1	–	–	–	–	–	–	–	–	–	–	–	–	–	–	–
NCI-H838	0.863	0.846	0.726	0.726	0.476	1	1.05	0.709	0.896	0.858	0.744	0.425	0.333	0.254	1.18	0.969	0.505	0.47	0.324	1.06
NCI-H1648	1.19	0.765	0.76	0.762	1.05	–	–	–	–	–	–	–	–	–	–	–	–	–	–	–
A549	0.487	0.418	0.31	0.0579	0.0629	0.771	0.561	0.508	0.0561	–	–	–	–	–	0.782	0.581	0.264	0.439	0.0949	–
A-427	0.802	0.772	0.626	0.247	0.465	1.08	1.16	–	1.06	1.14	1.07	0.543	0.369	0.109	1.21	1.1	0.986	0.719	0.115	1.17
NCI-H1792	0.424	0.471	0.477	0.371	0.39	0.774	0.744	0.898	0.602	1.11	0.815	0.688	0.635	0.321	0.627	0.424	0.906	0.471	0.293	0.706
LCLC-97TM1	0.313	0.503	0.466	0.333	0.298	0.233	0.269	–	0.245	0.928	0.501	0.706	0.0804	0.242	–	0.153	0.179	0.177	0.132	0.217
NCI-H1703	0.535	0.531	0.334	0.538	0.422	0.314	0.419	0.332	0.267	0.234	0.3	0.352	0.168	0.102	1.38	0.583	0.888	0.125	0.141	0.28
LCLC-103H	0.766	0.857	0.793	0.788	0.762	1.04	0.925	1.03	0.921	1.14	1.02	0.939	0.847	0.252	1.11	1.07	0.844	0.821	0.425	0.985
PC-3 [JPC-3]	1.15	–	1.08	1.15	0.898	1.06	1.08	1.07	0.932	0.928	0.912	0.534	0.636	0.312	0.975	0.945	0.826	0.734	0.251	1.02
BEN	1.12	1.06	1.2	1.02	0.737	1.14	1.04	1.07	0.92	0.874	0.964	0.462	0.296	0.217	0.929	0.771	0.537	0.435	0.256	1.14
ChaGo-K-1	0.381	0.403	0.433	0.442	0.378	–	–	–	–	1.39	1.21	0.67	0.326	0.39	–	–	–	–	–	–
SK-MES-1	0.706	0.738	0.508	0.641	0.246	0.886	0.964	0.952	0.522	–	–	–	–	–	1.05	1.08	0.762	0.719	0.221	1.08
NCI-H2170	0.613	0.566	0.645	0.599	0.609	0.766	0.834	0.913	0.718	–	–	–	–	–	–	–	–	–	–	0.889
NCI-H2342	0.488	0.398	0.44	0.391	0.447	–	–	–	–	–	–	–	–	–	–	–	–	–	–	–
NCI-H522	0.647	0.645	0.664	–	0.664	–	–	–	–	–	–	–	–	–	–	–	–	–	–	–
LK-2	0.664	0.957	0.918	–	0.497	–	1.22	–	0.864	–	–	–	–	–	0.527	0.505	–	0.863	0.19	1.37
NCI-H358	0.676	0.616	0.575	0.494	0.266	0.997	0.883	0.593	0.27	–	–	–	–	–	0.993	0.773	0.385	0.23	0.221	0.413
NCI-H1944	0.409	0.381	0.422	0.392	0.395	0.806	0.936	–	0.831	–	–	–	–	–	1.08	1.12	–	1.24	0.111	0.808
